This is an account of results in patent US20090176714A1, “METHOD OF REDUCING THE EFFECTS OF ABeta AND COMPOSITIONS THEREFORE” (priority 2004, published 2009).

In this experiment the test system is human cortical slices. Description: Aβ-induced cell death (EthD-1/calcein AM) in human organotypic cortical cultures. It counts as cell-based. From the text:
Four patients with intractable epilepsy who had elected to undergo a temporal lobe resection were recruited for this study. […] However, the overlying temporal cortex is normal. The age of the subjects ranged from 20 to 49. Brain tissue was obtained with informed consent from all patients.
Brain tissue was removed in large, intact pieces by electrocautery. Tissue obtained from the temporal cortex was approximately 3 cm×2 cm×1.5-2 cm. Immediately following removal, the tissue was placed in ice-cold Neuregen-I media (Brainbits, Springfield, Ill.), a CO2 independent transport and holding medium, and transported to a tissue culture laboratory. Meninges were removed before cutting the tissue with a scalpel to produce blocks about 0.5-1 cm^3 such that each gyrus was kept as intact as possible and the cortical layers were preserved. As described previously, incisions were made perpendicular to the longitudinal axis of the gyrus and along the white matter (Verwer et al., Exp. Gerontol., 38:167-172 (2003)). A vibratome was used to cut 400 μm thick slices at a plane perpendicular to the longitudinal axis of the gyrus. Thus, all cortical layers and a small amount of white matter were included in a slice. Alternately, small tissue pieces, which were usually obtained from the hippocampus, were cut at 400 μm using a McIlwain tissue chopper. No more than 2 slices were placed on a filter insert with a 30 mm diameter and a 0.4 μm filter pore size (Millipore, Billerica, Mass.) held in 6-well culture plates. For the first 12 hours, slices were kept in 1-1.2 mL Neurobasal media with B-27 supplement, 0.5 mM glutamine, and 1% penicillin/streptomycin (Invitrogen). Subsequently, the media was changed every 2 days using 1 mL of media without antibiotics. Organotypic cultures were maintained in a humidified incubator at 37° C. in 5% O2, 5% CO2, and 90% N for 4 to 28 days.
Cell death and viability was determined on live slices using the fluorescent probes from Molecular Probes' Live/Dead Kit. After a 40 minute incubation in calcein AM (1:400) and ethidium homodimer (1:1000) in phosphate buffered saline, slices were visualized at 200× magnification with an inverted Nikon Diaphot 200 microscope using the Bio-Rad MRC-1024 Laser Scanning Confocal system (Hercules, Calif.). Random images were captured at the emission spectrum of each probe, and Scion Image software (Frederick, Md.) was used to quantify the number of live and dead cells. At least three areas were imaged and used to determine the percent death for each slice. The percent death was calculated as the number of EthD-1 positive cells divided by the total number of EthD-1 and calcein AM positive cells.
β-amyloid1-42 and reverse Aβ (Aβ42-1) were obtained from BACHEM (Torrance, Calif.). These peptides were dissolved in 0.1% NH3OH at 222 μM. For treatments, Aβ or reverse Aβ was aggregated at 50 μM in Neurobasal media with B-27 supplement and 0.5 mM glutamine at 37° C. for 24 hours. Then, the slice culture media was removed, and the slices were treated with 1 mL of 25 μM or 50 μM Aβ, reverse Aβ, or vehicle for 24 hour. Human TTR (Calbiochem) was added to slices together with the Aβ treatment at final concentrations of 0.03, 0.3, and 3 μM TTR. sAPPα was obtained from Sigma (St. Louis, Mo.). Unless otherwise stated, all sAPPα treatments were performed at 1 nM 48 hours prior to the addition of Aβ. The 10 amino acid fragment of the carboxyl-terminal region of sAPPα (592-601 of APP695; SEVKMDAEFR was added according to the same protocol for sAPPα. Because a variable amount of tissue was obtained from each patient, not all treatments were performed on all patients.

As to “DAEF [peptide of 4 residues within the 10 residue peptide (residues 597-600)]”, for the setting “50 μM Aβ, sample from one subject, FIG. 6A”, the “Protection against Aβ toxicity (percent death)” value is reported as “protected against 50 μM Aβ toxicity”.
For SEVKMDAEFR, the “Protection against Aβ-induced death (percent death)” value (1 nM 48 hours prior to 50 μM Aβ, four subjects, FIG. 6A) is on record as “significant protection”.
With β-amyloid1-42 [Aβ], the “Number of cells that have lost membrane integrity” value (50 μM Aβ) is “dramatic increase”. The Percent death result (50 μM Aβ vs 50 μM reverse Aβ, FIG. 6A) is listed as “significantly increased”.
